IC50 data for four compounds are collected here from US8541592B2, “Inhibitors of 11-beta-hydroxysteroid dehydrogenase type 1” (Amgen Inc., priority 2005, dated 2013).

pIC50: −log10 of the molar value. Some results are limits rather than exact numbers.

In general, pIC50 refers to the IC50 on a negative log10 scale, so that one unit is a factor of ten. Low readings indicate a large IC50, high ones a small IC50.

T1 sequence (P28845 whole entry): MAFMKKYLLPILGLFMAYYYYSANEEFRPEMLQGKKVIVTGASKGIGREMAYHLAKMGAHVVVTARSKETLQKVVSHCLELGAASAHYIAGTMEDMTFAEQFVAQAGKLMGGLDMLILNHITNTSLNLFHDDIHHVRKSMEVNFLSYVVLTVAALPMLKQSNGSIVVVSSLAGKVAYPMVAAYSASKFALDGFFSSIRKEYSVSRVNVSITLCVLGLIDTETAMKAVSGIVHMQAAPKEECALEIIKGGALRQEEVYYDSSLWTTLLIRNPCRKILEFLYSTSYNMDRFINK

This test addresses T1, 11β-HSD1 (human enzyme) (Homo sapiens, UniProt P28845).
T1 construct: made in house
Description: Enzyme Assay (SPA, 3H-cortisone), human enzyme prep. Format: biochemical. The conditions noted are these: species of enzyme (human or mouse) not stated.
Compound `CC(C)C1(C)SC(Nc2ccccc2C(F)(F)F)=NC1=O` (stereo not shown) [5-methyl-5-(1-methylethyl)-2-((2-(trifluoromethyl)phenyl)amino)-1,3-thiazol-4(5H)-one] had a pIC50 of over 7.70. For `CC1(CC2CCOCC2)SC(N[C@H]2C[C@@H]3CC[C@H]2C3)=NC1=O` (stereo partly drawn) [2-((1S,2S,4R)-bicyclo[2.2.1]heptan-2-ylamino)-5-methyl-5-((tetrahydro-2H-pyran-4-yl)methyl)thiazol-4(5H)-one], the negative-log IC50 (pIC50) is over 7.70. Compound `Cc1ccccc1NC1=NC(=O)C(C2CCCC2)S1` (stereo not shown) [2-(o-toluidino)-5-cyclopentylthiazol-4(5H)-one] showed a pIC50 of over 7.70. As for `CC(C)C1(C)SC(Nc2ccccc2Cl)=NC1=O` (stereo not shown) [2-((2-chlorophenyl)amino)-5-methyl-5-(1-methylethyl)-1,3-thiazol-4(5H)-one], the figure is over 7.70.
